Experimental data published in patent US7655629B2, “Peptides and their use for the treatment of HIV infections” (priority 2002, dated 2010).
Non-standard residues stand in square brackets, D forms with d. Residues, ends and D or L forms follow the SMILES beside them. Tic = O=C(O)[C@@H]1Cc2ccccc2CN1; dTic = O=C(O)[C@H]1Cc2ccccc2CN1

These compounds were tested on X4-tropic HIV-1 NL4-3. Conditions: read-out: IC50 NL4-3; P4-CCR5 cells, HIV-1 NL4-3, peptide 2 h before infection, readout three days after infection.
Text: These cells contain the β-galactosidase reporter gene under the control of the HIV-1 promoter. Thus, activation of the β-galactosidase reporter gene allows to measure the efficiency of HIV-1 infection and thus to quantitate the potency of HIV-1 inhibitors (Detheux M. et al., 2000; Journal of Experimental Medicine 192, 1501-1508; Münch et al., 2002; Antimicrobial Agents and Chemotherapy 46, 982-990).
To perform a typical infection assay, P4-CCR5 cells (Charneau et al., 1994; Journal of Molecular Biology 241, 651-662; Charneau et al., Virology. 1994 205, 247-53) were kept in RPMI 1640 medium supplemented with 10 volume % FCS. This cell line coexpresses CD4 and both HIV-1 coreceptors CCR5 and CXCR4 and contains the β-galactosidase gene under the control of the HIV-1 promoter. Virus stocks were generated by the calcium coprecipitation method as described (Detheux et al., J Exp Med. 192:1501-8; 2000), and the p24 antigen levels were quantitated with an HIV p24 ELISA kit obtained through the NIH AIDS Reagent Program. Cells were seeded in flat-bottomed 96-well dishes, cultured overnight, and incubated with the different doses of peptide for 2 h before infection with virus containing 1 ng of p24 antigen in a total volume of […] of medium. After overnight incubation, cells were washed twice and cultivated in fresh culture medium without inhibitory peptide. Three days after infection the cells were lysed, and infectivity was quantitated using the Galacto-Light Plus™ chemiluminescence reporter assay kit (Tropix, Bedford, Mass.) as recommended by the manufacturer. All infections were performed in quintuplicate.
In the case of `CC[C@H](C)[C@H](NC(=O)[C@H](C)NC(=O)[C@H](CCC(=O)O)NC(=O)[C@@H](N)CC(C)C)C(=O)N1CCC[C@H]1C(=O)N[C@@H](CCSC)C(=O)N[C@@H](CO)C(=O)N[C@H](C(=O)N1CCC[C@H]1C(=O)N1CCC[C@@H]1C(=O)N[C@@H](CCC(=O)O)C(=O)N[C@@H](Cc1ccccc1)C(=O)N[C@@H](CC(C)C)C(=O)N[C@@H](Cc1ccccc1)C(=O)NCC(=O)N[C@@H](CCCCN)C(=O)N1CCC[C@H]1C(=O)NCC(=O)N[C@@H](Cc1ccccc1)C(=O)N[C@H](C(=O)N[C@@H](Cc1ccccc1)C(=O)O)C(C)C)[C@@H](C)CC` [VIR-377, LEAIPMSIPpEFLFGKPGFVF] (H-LEAIPMSIP[dP]EFLFGKPGFVF-OH), the IC50 is reported as 487 nM.
In the case of `CC[C@H](C)[C@H](NC(=O)[C@H](C)NC(=O)[C@H](CCC(=O)O)NC(=O)[C@@H](N)CC(C)C)C(=O)N1CCC[C@H]1C(=O)N[C@@H](CCSC)C(=O)N[C@@H](CO)C(=O)N[C@H](C(=O)N1CCC[C@H]1C(=O)N1CCC[C@@H]1C(=O)N[C@@H](CCC(=O)O)C(=O)N[C@@H](Cc1ccccc1)C(=O)N[C@@H](CC(C)C)C(=O)N[C@@H](Cc1ccccc1)C(=O)NCC(=O)N[C@@H](CCCCN)C(=O)N1CCC[C@H]1C(=O)N[C@@H](Cc1ccccc1)C(=O)N[C@@H](Cc1ccccc1)C(=O)N[C@H](C(=O)N[C@@H](Cc1ccccc1)C(=O)O)C(C)C)[C@@H](C)CC` [VIR-380, LEAIPMSIPpEFLFGKPFFVF] (H-LEAIPMSIP[dP]EFLFGKPFFVF-OH), the IC50 is reported as 540 nM.
With `CC[C@H](C)[C@H](NC(=O)[C@H](C)NC(=O)[C@H](CCC(=O)O)NC(=O)[C@@H](N)CC(C)C)C(=O)N1CCC[C@H]1C(=O)N[C@@H](CCSC)C(=O)N[C@@H](CO)C(=O)N[C@H](C(=O)N1CCC[C@H]1C(=O)N1CCC[C@@H]1C(=O)N[C@@H](CCC(=O)O)C(=O)N[C@@H](Cc1ccccc1)C(=O)N[C@@H](CC(C)C)C(=O)N[C@@H](Cc1ccccc1)C(=O)NCC(=O)N[C@@H](CCCCN)C(=O)N1CCC[C@H]1C(=O)N[C@@H](CCC(=O)O)C(=O)N[C@@H](Cc1ccccc1)C(=O)N[C@H](C(=O)N[C@@H](Cc1ccccc1)C(=O)O)C(C)C)[C@@H](C)CC` [VIR-384, LEAIPMSIPpEFLFGKPEFVF] (H-LEAIPMSIP[dP]EFLFGKPEFVF-OH) the IC50 was 622 nM.
For `CC[C@H](C)[C@H](NC(=O)[C@H](C)NC(=O)[C@H](CCC(=O)O)NC(=O)[C@@H](N)CC(C)C)C(=O)N1CCC[C@H]1C(=O)N[C@@H](CCSC)C(=O)N[C@@H](CO)C(=O)N[C@@H](C)C(=O)N1CCC[C@H]1C(=O)N1CCC[C@@H]1C(=O)N[C@@H](CCC(=O)O)C(=O)N[C@@H](Cc1ccccc1)C(=O)N[C@@H](CC(C)C)C(=O)N[C@@H](Cc1ccccc1)C(=O)NCC(=O)N[C@@H](CCCCN)C(=O)N1CCC[C@H]1C(=O)N[C@@H](Cc1ccccc1)C(=O)N[C@H](C(=O)N[C@@H](Cc1ccccc1)C(=O)O)C(C)C` [VIR-396, LEAIPMSAPpEFLFGKPFVF] (H-LEAIPMSAP[dP]EFLFGKPFVF-OH), the IC50 was 628 nM.
With `CC[C@H](C)[C@H](NC(=O)[C@H](C)NC(=O)[C@H](CCC(=O)O)NC(=O)[C@@H](N)CC(C)C)C(=O)N1CCC[C@H]1C(=O)N[C@@H](CCSC)C(=O)N[C@@H](CO)C(=O)N[C@@H](Cc1ccccc1)C(=O)N1CCC[C@H]1C(=O)N1CCC[C@@H]1C(=O)N[C@@H](CCC(=O)O)C(=O)N[C@@H](Cc1ccccc1)C(=O)N[C@@H](CC(C)C)C(=O)N[C@@H](Cc1ccccc1)C(=O)NCC(=O)N[C@@H](CCCCN)C(=O)N1CCC[C@H]1C(=O)N[C@@H](Cc1ccccc1)C(=O)N[C@H](C(=O)N[C@@H](Cc1ccccc1)C(=O)O)C(C)C` [VIR-400, LEAIPMSFPpEFLFGKPFVF] (H-LEAIPMSFP[dP]EFLFGKPFVF-OH) the IC50 was 590 nM.
In the case of `CC[C@H](C)[C@H](NC(=O)[C@H](C)NC(=O)[C@H](CCC(=O)O)NC(=O)[C@@H](N)CC(C)C)C(=O)N1CCC[C@H]1C(=O)N[C@@H](CCSC)C(=O)NCC(=O)N[C@H](C(=O)N1CCC[C@H]1C(=O)N1CCC[C@@H]1C(=O)N[C@@H](CCC(=O)O)C(=O)N[C@@H](Cc1ccccc1)C(=O)N[C@@H](CC(C)C)C(=O)N[C@@H](Cc1ccccc1)C(=O)NCC(=O)N[C@@H](CCCCN)C(=O)N1CCC[C@H]1C(=O)N[C@@H](Cc1ccccc1)C(=O)N[C@H](C(=O)N[C@@H](Cc1ccccc1)C(=O)O)C(C)C)[C@@H](C)CC` [VIR-416, LEAIPMGIPpEFLFGKPFVF] (H-LEAIPMGIP[dP]EFLFGKPFVF-OH), the IC50 is reported as 369 nM.
Compound `CC[C@H](C)[C@H](NC(=O)[C@H](CCCCN)NC(=O)[C@H](CCC(=O)O)NC(=O)[C@@H](N)CC(C)C)C(=O)N1CCC[C@H]1C(=O)N[C@@H](CCSC)C(=O)NCC(=O)N[C@H](C(=O)N1CCC[C@H]1C(=O)N1CCC[C@@H]1C(=O)N[C@@H](CCC(=O)O)C(=O)N[C@@H](Cc1ccccc1)C(=O)N[C@@H](CC(C)C)C(=O)N[C@@H](Cc1ccccc1)C(=O)NCC(=O)N[C@@H](CCCCN)C(=O)N1CCC[C@H]1C(=O)N[C@@H](Cc1ccccc1)C(=O)N[C@H](C(=O)N[C@@H](Cc1ccccc1)C(=O)O)C(C)C)[C@@H](C)CC` [VIR-418, LEKIPMGIPpEFLFGKPFVF] (H-LEKIPMGIP[dP]EFLFGKPFVF-OH) has an IC50 of 500 nM.
For `CC[C@H](C)[C@H](NC(=O)[C@@H]1CCCN1C(=O)[C@@H](NC(=O)[C@H](C)NC(=O)[C@H](CCC(=O)O)NC(=O)[C@@H](N)CC(C)C)[C@@H](C)CC)C(=O)N[C@@H](CO)C(=O)N[C@H](C(=O)N1CCC[C@H]1C(=O)N1CCC[C@@H]1C(=O)N[C@@H](CCC(=O)O)C(=O)N[C@H](C(=O)N1Cc2ccccc2C[C@@H]1C(=O)N[C@@H](Cc1ccccc1)C(=O)N[C@@H](CC(N)=O)C(=O)N[C@@H](CCCCN)C(=O)N1CCC[C@H]1C(=O)N[C@@H](Cc1ccccc1)C(=O)N[C@H](C(=O)N[C@@H](Cc1ccccc1)C(=O)O)C(C)C)C(C)C)[C@@H](C)CC` [VIR-445, LEAIPISIPpEV(D-Tic)FNKPFVF] (H-LEAIPISIP[dP]EV[dTic]FNKPFVF-OH), the IC50 was 224 nM.
`CC[C@H](C)[C@H](NC(=O)[C@@H]1CCCN1C(=O)[C@@H](NC(=O)[C@H](C)NC(=O)[C@H](CCC(=O)O)NC(=O)[C@@H](N)CC(C)C)[C@@H](C)CC)C(=O)N[C@@H](CO)C(=O)N[C@H](C(=O)N1CCC[C@H]1C(=O)N1CCC[C@@H]1C(=O)N[C@@H](CCC(=O)O)C(=O)N[C@H](C(=O)N[C@@H](C)C(=O)N[C@@H](Cc1ccccc1)C(=O)N[C@@H](CC(N)=O)C(=O)N[C@@H](CCCCN)C(=O)N1Cc2ccccc2C[C@H]1C(=O)N[C@@H](Cc1ccccc1)C(=O)N[C@H](C(=O)N[C@@H](Cc1ccccc1)C(=O)O)C(C)C)C(C)C)[C@@H](C)CC` [VIR-447, LEAIPISIPpEVAFNK(L-Tic)FVF] (H-LEAIPISIP[dP]EVAFNK[Tic]FVF-OH) showed an IC50 of 620 nM.
For `CC[C@H](C)[C@H](NC(=O)[C@H](CC(=O)O)NC(=O)[C@H](CCC(=O)O)NC(=O)[C@@H](N)CC(C)C)C(=O)N1CCC[C@H]1C(=O)N[C@@H](CCSC)C(=O)N[C@@H](CO)C(=O)N[C@H](C(=O)N1CCC[C@H]1C(=O)N1CCC[C@@H]1C(=O)N[C@@H](CCC(=O)O)C(=O)N[C@H](C(=O)N1Cc2ccccc2C[C@H]1C(=O)N[C@@H](Cc1ccccc1)C(=O)N[C@@H](CC(N)=O)C(=O)N[C@@H](CCCCN)C(=O)N1CCC[C@H]1C(=O)N[C@@H](Cc1ccccc1)C(=O)N[C@H](C(=O)N[C@@H](Cc1ccccc1)C(=O)O)C(C)C)C(C)C)[C@@H](C)CC` [VIR-452, LEDIPMSIPpEV(L-Tic)FNKPFVF] (H-LEDIPMSIP[dP]EV[Tic]FNKPFVF-OH), the IC50 was 184 nM.
`CC[C@H](C)[C@H](NC(=O)[C@@H]1CCCN1C(=O)[C@@H](NC(=O)[C@H](CC(=O)O)NC(=O)[C@H](CCC(=O)O)NC(=O)[C@@H](N)CC(C)C)[C@@H](C)CC)C(=O)NCC(=O)N[C@H](C(=O)N1CCC[C@H]1C(=O)N1CCC[C@@H]1C(=O)N[C@@H](CCC(=O)O)C(=O)N[C@@H](Cc1ccccc1)C(=O)N[C@@H](CC(C)C)C(=O)N[C@@H](Cc1ccccc1)C(=O)N[C@@H](CC(N)=O)C(=O)N[C@@H](CCCCN)C(=O)N1CCC[C@H]1C(=O)N[C@@H](Cc1ccccc1)C(=O)N[C@H](C(=O)N[C@@H](Cc1ccccc1)C(=O)O)C(C)C)[C@@H](C)CC` [VIR-479, LEDIPIGIPpEFLFNKPFVF] (H-LEDIPIGIP[dP]EFLFNKPFVF-OH) gave an IC50 of 479 nM.
With `CC[C@H](C)[C@H](NC(=O)[C@@H]1CCCN1C(=O)[C@@H](NC(=O)[C@H](CCCCN)NC(=O)[C@H](CCC(=O)O)NC(=O)[C@@H](N)CC(C)C)[C@@H](C)CC)C(=O)NCC(=O)N[C@H](C(=O)N1CCC[C@H]1C(=O)N1CCC[C@@H]1C(=O)N[C@@H](CCC(=O)O)C(=O)N[C@H](C(=O)N[C@@H](C)C(=O)N[C@@H](Cc1ccccc1)C(=O)N[C@@H](CC(N)=O)C(=O)N[C@@H](CCCCN)C(=O)N1Cc2ccccc2C[C@H]1C(=O)N[C@@H](Cc1ccccc1)C(=O)N[C@H](C(=O)N[C@@H](Cc1ccccc1)C(=O)O)C(C)C)C(C)C)[C@@H](C)CC` [VIR-485, LEKIPIGIPpEVAFNK(L-Tic)FVF] (H-LEKIPIGIP[dP]EVAFNK[Tic]FVF-OH) the IC50 was 760 nM.
